Values quoted from earlier work in US20070088012A1, “Method of treating or preventing type-2 diabetes” (priority 2005, published 2007).

## C[C@]12CC[C@H]3[C@@H](CCC4=CC(=O)CC[C@@]43C)[C@@H]1CC[C@@H]2O [Testosterone, testosterone]
Circulating testosterone
  bound to protein in the blood: 98%
In men
  share bound weakly to albumin: 60%
  share of the binding to sex hormone binding globulin (SHBG): approximately 40%
men
  Metabolic Clearance Rate of Daily Testosterone: ^aMetabolic Clearance Rate of Daily Testosterone = 600 L/day
Reported in the literature
  half-life of testosterone: 10 to 100 min
